Reference: US9474740B2, “Ectoparasite control agent” (Nippon Soda Co., Ltd., priority 2013, dated 2016)

Columns and labels:
[1] = tested on: American dog mites (Dermacentor variabilis) in nymph stage; assay: Acaricidal test of rodent (RAT) in vivo; details: Sprague-Dawley rat, topical 0.05 ml in acetone, effective component concentration of 1% or less (10 mg/ml), 48 hours after the treatment, read-out: efficacy (reduction % in the number of surviving mites)
From the text: Evaluation of the test compounds can be performed by a method obtained by modifying the analysis method described in “J. Med. Entomol. 43 (3) 526-532 (2006)”. In the analysis method, other mite species (in references, described as a mite of Amblyomma americanum) can be also used, and, for example, other mite species such as a mite of Dermacentor variabilis can be also used. A mite-holding unit (which was configured of small size nipples, a crew cap with a vent, and a reinforcing rubber washer) was attached to the back of an adult Sprague-Dawley rat. After attaching the holding unit, 0.05 ml of a test compound dissolved in acetone was applied topically on the skin surface inside the holding unit. After leaving to stand for a sufficient period of time to evaporate the acetone, about 10 American dog mites (Dermacentor variabilis) in nymph stage, to which food was not given, were put into each holding unit. Three to five rats per treatment group were used. 48 hours after the treatment, the holding unit was removed, and the surviving mites and dead mites were counted. In the evaluation of efficacy, geometric mean calculation was used. First, the total number of surviving mites was converted by the natural logarithm transformation by adding 1 (Ln total number+1). That is, by adding 1 to each total number, the total number which was zero was adjusted. The geometric mean (GM) of the total number of mites in a treatment group was obtained by inverse-transforming the mean transformation value of the total number of treatment groups and subtracting 1. The non-treated control group was used for comparison with the groups in which the test compound was given for calculation of efficacy % (reduction % in the number of surviving mites). […] Efficacy [%]=[(survival mites GM number of control−survival mites GM number of treatment groups)/(survival mites GM number of control)×100

Rhipicephalus sanguineus = assay: Parasite extermination test of dog in vivo, R. sanguineus
Procedure: Each type of the test compounds was applied to four dogs. One day before treatment (−1 day) of the test compound, about 50 adults of Rhipicephalus sanguineus to which food was not given, per dog, were parasitized. It was estimated that 50% of the 50 ticks were male and 50% of the 50 ticks were female. Separately, the tested compound was dissolved in a mixed solvent consisting of 80% by volume of benzyl alcohol and 20% by volume of isopropyl myristate such that the concentration became 50 mg/ml, whereby a test solution was prepared. On zeroth day, several different spots of the interscapular region were treated with the test solution by “topical spot-on” such that the test compound was treated per 20 mg/kg per body weight of a dog. For comparison, a negative control was also prepared. In order to evaluate the treatment against the parasitized ticks, survival of the ticks were observed on the 2nd day (48 hours after the treatment). To evaluate the durability, on the 5th, 12th, 19th, and 28th day, 50 ticks to which food was not given, per dog, were parasitized again. On the 7th, 14th, 21 st, 30th and 35th day, 48 hours after each was parasitized, survival of the ticks and mites were observed, and the ticks and mites were removed from the dogs. The ticks were classified according to whether or not the ticks were attached, and the survival state was determined. In the evaluation of efficacy, the same geometric mean calculation as that in Test Example 2 was used. […] In addition, for Test Compound 1 to 32, the test compounds were treated per 5 mg/kg per body weight of an individual with respect to a dog.

[2] = tested on: fleas (Ctenocephalides felis); assay: Parasite extermination test of dog in vivo, C. felis; details: topical spot-on 20 mg/kg
Procedure: Each type of the test compounds was applied to four dogs. One day before treatment (−1 day) of the test compound, about 50 adults of Rhipicephalus sanguineus to which food was not given, per dog, were parasitized. It was estimated that 50% of the 50 ticks were male and 50% of the 50 ticks were female.
Separately, the tested compound was dissolved in a mixed solvent consisting of 80% by volume of benzyl alcohol and 20% by volume of isopropyl myristate such that the concentration became 50 mg/ml, whereby a test solution was prepared.
On zeroth day, several different spots of the interscapular region were treated with the test solution by “topical spot-on” such that the test compound was treated per 20 mg/kg per body weight of a dog. For comparison, a negative control was also prepared.
In addition, on the 12th and 28th day, 50 adult fleas (Ctenocephalides felis) to which food was not given were parasitized together.
On the 7th, 14th, 21 st, 30th and 35th day, 48 hours after each was parasitized, survival of the ticks and mites were observed, and the ticks and mites were removed from the dogs. The ticks were classified according to whether or not the ticks were attached, and the survival state was determined.
In the evaluation of efficacy, the same geometric mean calculation as that in Test Example 2 was used.

[3] = tested on: American dog mites (Dermacentor variabilis); assay: Parasite extermination test of dog in vivo, D. variabilis; details: topical spot-on 20 mg/kg, 35th day
Procedure: Each type of the test compounds was applied to four dogs. One day before treatment (−1 day) of the test compound, about 50 adults of Rhipicephalus sanguineus to which food was not given, per dog, were parasitized. It was estimated that 50% of the 50 ticks were male and 50% of the 50 ticks were female. Separately, the tested compound was dissolved in a mixed solvent consisting of 80% by volume of benzyl alcohol and 20% by volume of isopropyl myristate such that the concentration became 50 mg/ml, whereby a test solution was prepared. On zeroth day, several different spots of the interscapular region were treated with the test solution by “topical spot-on” such that the test compound was treated per 20 mg/kg per body weight of a dog. For comparison, a negative control was also prepared. Furthermore, on the 33rd day, 50 adult American dog mites (Dermacentor variabilis) to which food was not given were parasitized. On the 7th, 14th, 21 st, 30th and 35th day, 48 hours after each was parasitized, survival of the ticks and mites were observed, and the ticks and mites were removed from the dogs. The ticks were classified according to whether or not the ticks were attached, and the survival state was determined. In the evaluation of efficacy, the same geometric mean calculation as that in Test Example 2 was used. As the test compounds, 1-3, 1-5, 1-10, 1-28, 1-29, and 1-71 were used. Here, the test using American dog mites was performed on 1-28 and 1-71.

[4] = 5 mg/kg per body weight, 2nd day
[5] = 5 mg/kg per body weight, 5th day
[6] = topical spot-on 20 mg/kg, 2nd day
[7] = topical spot-on 20 mg/kg, 7th day
[8] = topical spot-on 20 mg/kg, 14th day
[9] = topical spot-on 20 mg/kg, 21st day
[10] = topical spot-on 20 mg/kg, 30th day

SMILES | pest or weed control at up to 10000 µg/mL [1] [%] | average number of surviving parasites (Rhipicephalus sanguineus; [6]) | efficacy (%) (Rhipicephalus sanguineus; [6]) | average number of surviving parasites (Rhipicephalus sanguineus; [7]) | efficacy (%) (Rhipicephalus sanguineus; [7]) | average number of surviving parasites (Rhipicephalus sanguineus; [8]) | efficacy (%) (Rhipicephalus sanguineus; [8]) | average number of surviving parasites (Rhipicephalus sanguineus; [9]) | efficacy (%) (Rhipicephalus sanguineus; [9]) | average number of surviving parasites (Rhipicephalus sanguineus; [10]) | efficacy (%) (Rhipicephalus sanguineus; [10]) | average number of surviving parasites ([2]; 14th day) | efficacy (%) ([2]; 14th day) | average number of surviving parasites ([2]; 30th day) | efficacy (%) ([2]; 30th day) | other results
Cc1ccc(/N=C2\SC(C)(C)CC\C2=C/Sc2ccccc2F)cc1 [Compound 1-32] | ≥ 50 |  |  |  |  |  |  |  |  |  |  |  |  |  |  | average number of surviving parasites (Rhipicephalus sanguineus; [4]): 0; efficacy (%) (Rhipicephalus sanguineus; [4]): (76.6%); average number of surviving parasites (Rhipicephalus sanguineus; [5]): 0; efficacy (%) (Rhipicephalus sanguineus; [5]): (100%)
C=C1SC(=N\c2ccc(C)cc2)/C(=C/Sc2ccccc2)CC1(C)C [Compound 1-3] | ≥ 50 | 0.5 | 98.6 | 0 | 100 | 0 | 100 | 0 | 100 | 6.0 | 92.3 | 0 | 100 | 0 | 100 | 
C=C1SC(=N\c2ccc(C)cc2)/C(=C/Sc2cccs2)CC1(C)C [Compound 1-10] | ≥ 50 | 0.5 | 98.9 | 0 | 100 | 0 | 100 | 0.5 | 99.5 | 4.3 | 95.4 | 0 | 100 | 0 | 100 | 
C=C1SC(=N\c2ccc(C)cc2)/C(=C/Sc2cccs2)C(C)C1(C)C (stereo not shown) [Compound 1-29] | ≥ 50 | 1.3 | 97.3 | 0 | 100 | 0 | 100 | 0 | 100 | 0 | 100 | 0 | 100 | 0 | 100 | 
C=C1SC(=N\c2ccc(C)cc2)/C(=C/Sc2ccccc2)CC12CCCCC2 [Compound 1-5] | ≥ 50 | 0 | 100 | 0 | 100 | 0 | 100 | 1.8 | 95.4 | 6.5 | 86.8 | 0 | 100 | 8.8 | 98.2 | 
Cc1ccc(/N=C2\SC(C)(C)CC\C2=C/Sc2cccc(C)c2)cc1 [Compound 1-31] | ≥ 50 |  |  |  |  |  |  |  |  |  |  |  |  |  |  | 
CC(C)=C1CC(C)C(=C\SCc2ccc(Cl)cc2)/C(=N/c2ccc(C)cc2)S1 (stereo not shown) [Compound 1-71] | ≥ 50 | 5.0 | 90 | 0 | 100 | 0 | 100 | 1.8 | 96.9 | 0 | 86.8 | 0 | 100 | 0 | 100 | average number of surviving parasites [3]: 9.8; efficacy (%) [3]: 80.3%
C=C1SC(=N\c2ccc(C)cc2)/C(=C/Sc2ccccc2)C(C)C1(C)C (stereo not shown) [Compound 1-28] | ≥ 50 | 0.25 | 99.3 | 0 | 100 | 0 | 100 | 0 | 100 | 1.8 | 97.8 | 0 | 100 | 0 | 100 | average number of surviving parasites [3]: 7.0; efficacy (%) [3]: 88.3%
